One compound from patent US20220143183A1, “PHOTOSWITCHABLE PROTACS AND SYNTHESIS AND USES THEREOF” (New York University, priority 2019, published 2022) can be followed below.

Holding throughout (assay type): cell-based, human
One experiment has as its system BRD2-4. The experiment in a line: Western blot of BET proteins in RS4;11 cells, results stated for BRD2-4 together. The protocol:
Next, the light dependence of targeted protein degradation was analyzed in RS4;11 cells by western blot analysis of the BET proteins BRD2-4 (FIG. 5). To this end, cells were treated with increasing concentrations of our lead compound, PHOTAC-I-3, for 4 h and pulse-irradiated with 390 nm light (100 ms every 10 s). […] The cereblon-dependent degradation was confirmed by a competition experiment (FIG. 5E), and further validated by siRNA knockdown of cereblon (FIG. 13).
The slight effect on c-MYC can be explained by inhibition of BRD4 with the (+)-JQ1 derivative PHOTAC-I-3 in the absence of targeted degradation.
Cells were incubated with different concentrations of selected compounds. They were placed in a light-proof box and preirradiated for 1 min at 390 nm followed by 100 ms pulses every 10 s or were kept in the dark for 4 h.
Cultured cells were collected by centrifugation and washed twice with cold PBS. The supernatant was removed and each cell pellet was lysed in 100 μL NP40-Cell-Lysis Buffer+0.1% SDS+1 mM PMSF+ protease inhibitor cocktail (Sigma Aldrich) for 30 min on ice, with vortexing at 10-minute intervals. Afterwards, cells were centrifuged at 13.000 rpm for 10 min at 4° C. Samples were stored on ice and the supernatant was collected for protein concentration determination using a Thermofisher Scientific Pierce™ Coomassie Plus (Bradford) Assay Kit. […]

A further experiment relates to RS4;11 lymphoblast cells. Put plainly: Cell viability assay (Promega MTS), dark or pulsed irradiation. Conditions: 72 h; for EC50: Homo sapiens. As to the method:
Optical control of BRD2-4 with PHOTACs. To assess the biological activity of the PHOTACs, their effect on the viability of RS4;11 lymphoblast cells was tested. Cells were treated in a 96-well plate with increasing concentrations of PHOTACs and were either irradiated with 390 nm light pulses (100 ms every 10 s) for 72 h or incubated with the compound in the dark. Subsequently, cell viability assays (Promega MTS) were performed, as previously described.
Cell culture. The human acute lymphoblastic leukemia RS4;11 (ATCC® CRL-1873™) cell line was purchased from the American Type Culture Collection and cultured in RPMI1640 medium (Gibco) with 10% fetal bovine serum (FBS) and 1% penicillin/streptomycin (PS) in a humidified incubator at 37° C. with 5% CO2 in air. Cells were divided every 2-3 days and the concentration was maintained between 1×10^5 and 1×10^6 cells/mL. For the experiments compounds were serially diluted in RPMI160 without the dye phenol red (Gibco) to reduce the influence of the dye by absorption. Azobenzene stocks and dilutions were strictly kept in the dark and prepared under red light conditions.
Colorimetric MTT Assays. The activity of dehydrogenase enzymes in metabolically active cells, as a quantitative measurement for cytotoxicity and proliferation, was determined by colorimetric measurement of the reduction of [3-(4,5-dimethylthiazol-2-yl)-5-(3-carboxymethoxyphenyl)-2-(4-sulfophenyl)-2H-tetrazolium (MTS) to formazan. The absorbance of formazan at 490 nm was measured on a FLUOstar Omega microplate reader (BMG Labtech).
Cells were treated with different concentrations, ranging from 10 μM to 1 nM, of our compounds and incubated on a 96-well plate for 72 h. They were placed in light-proof boxes and exposed to the lighting conditions specified in the experiment for 72 h. Next, 10 μL of Promega CellTiter 96® AQueous One Solution Reagent was added to each well and incubated for further 4-7 hours. The absorbance at 490 nm was then recorded with a 96-well plate reader.
LED illumination. For illumination of the cells we used the cell disco system as previously described in the literature^[25]. 390 nm 5 mm LEDs were purchased from Roithner Lasertechnik. Cells were preirradiated for 1 min at 390 nm, followed by 100 ms pulses every 10 s in 96- or 6-well plates.

For a further experiment, the system named is PARP-1. The experiment in a line: Immunoblot of PARP-1 cleavage in RS4;11 cells. Conditions: 1 μM, sustained 390 nm pulse irradiation. The protocol:
FIG. 5 depicts optical control of BRD2-4 levels. A) Immunoblot analysis after treatment of RS4;11 cells with PHOTAC-I-3 for 4 h at different concentrations. Cells were either irradiated with 100 ms pulses of 390 nm light every 10 s (left) or kept in the dark (right). B) Time course of BRD2-4 degradation, c-MYC levels and PARP1 cleavage assayed by immunoblotting. RS4;11 cells were treated with PHOTAC-I-3 (1 μM) and collected at the indicated time points. PHOTAC-I-3 has no effect on BRD2-4 levels in the dark over several hours. […] D) Color-dosing: Wavelength dependence of BRD2/4 degradation promoted by 300 nM PHOTAC-I-3. E) Immunoblot analysis after treatment of RS4;11 cells with PHOTAC-I-3 and combinations with lenalidomide or (+)-JQ1 for 4 h to confirm a cereblon-based mechanism. Cells were either irradiated with 100 ms pulses of 390 nm light every 10 s (left) or kept in the dark (right). F) Optical degradation of BRD4 with the thalidomide derivative PHOTAC-I-10. Immunoblot analysis of RS4;11 cells after treatment with PHOTAC-I-10 for 4 h at different concentrations which were either irradiated with 100 ms pulses of 390 nm light every 10 s (left) or kept in the dark (right). […] The slight effect on c-MYC can be explained by inhibition of BRD4 with the (+)-JQ1 derivative PHOTAC-I-3 in the absence of targeted degradation.
A general note: A western blot detects proteins with antibodies after separation by electrophoresis.

For `COc1cc(/N=N/c2cccc3c2CN(C2CCC(=O)NC2=O)C3=O)cc(OC)c1OCC(=O)NCCCCNC(=O)C[C@@H]1N=C(c2ccc(Cl)cc2)c2c(sc(C)c2C)-n2c(C)nnc21` (stereo partly drawn) [PHOTAC-I-3, 2-((S)-4-(4-chlorophenyl)-2,3,9-trimethyl-6H-thieno[3,2-f][1,2,4]triazolo[4,3-a][1,4]diazepin-6-yl)-N-(4-(2-(4-((E)-(2-(2,6-dioxopiperidin-3-yl)-1-oxoisoindolin-4-yl)diazenyl)-2,6-dimethoxyphenoxy)acetamido)butyl)acetamide], in the experiment on BRD2-4 (1 μM together with MLN4924 (2.5 μM), 390 nm irradiation), the “BRD2-4 levels with CRL inhibitor MLN4924” value is listed as “rescued BRD2-4 levels”. For the same compound, the “BRD levels in the dark, time course” value with BRD2-4 (1 μM, in the dark) is given as “no effect on BRD levels”. In the experiment on RS4;11 lymphoblast cells, the “EC50 difference dark vs 390 nM” value stood at 7.1 fold. For the same compound, the “light dependence of activity in viability assay” value in the experiment with RS4;11 lymphoblast cells (dark vs pulsed 390 nm irradiation) was “largest difference between light and dark activity”. In addition, the EC50 with RS4;11 lymphoblast cells (RS4-11, light or radiation study, irradiated with 390 nm light pulses (100 ms every 10 s)) was 88.5 nM; with RS4;11 lymphoblast cells (RS4-11, in the dark), 631 nM. Also, in the experiment with PARP-1, the “PARP-1 cleavage (indicator of apoptosis)” value was “increasing cleavage of PARP-1”.

As usually defined, the EC50 is the concentration giving half of the maximal effect. Low values mean a more potent agent, high ones a less potent agent.
